# Source: PubChem BioAssay AID330 (DTP/NCI, 2004)
# “And” between values parts separate entries of the source, which are not always exact repeats. Identical values can stand only once. Inconclusive results and toxic doses are left out.
# System: P388 leukemia ip, CD2F1 mice, survival T/C
# Assay: NCI In Vivo Anticancer Drug Screen. Data for tumor model P388 Leukemia (intraperitoneal) in CD2F1 (CDF1) mice
# Details: endpoint: median survival time, higher = longer survival
# Method in brief: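 Mice carrying the transplanted tumor received test compound or vehicle. Survival was recorded in each group, and the value is the treated-group measurement divided by that of the vehicle-treated control group.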
# [1] = dose: 50.0 mg/kg/injection, schedule: Q01DX005 (ip), vehicle: Klucel (hydroxypropylcellulose) (HPC)
# [2] = dose: 60.0 mg/kg/injection, schedule: Q01DX005 (ip), vehicle: saline with Tween-80
# [3] = dose: 100.0 mg/kg/injection, schedule: Q01DX005 (ip), vehicle: Klucel (hydroxypropylcellulose) (HPC)
# [4] = dose: 120.0 mg/kg/injection, schedule: Q01DX005 (ip), vehicle: saline with Tween-80
# [5] = dose: 200.0 mg/kg/injection, schedule: Q01DX005 (ip), vehicle: Klucel (hydroxypropylcellulose) (HPC)
# [6] = dose: 240.0 mg/kg/injection, schedule: Q01DX005 (ip), vehicle: saline with Tween-80
# [7] = dose: 100.0 mg/kg/injection, schedule: Q04DX003 (ip), vehicle: Klucel (hydroxypropylcellulose) (HPC)
# [8] = dose: 200.0 mg/kg/injection, schedule: Q04DX003 (ip), vehicle: Klucel (hydroxypropylcellulose) (HPC)
# [9] = dose: 400.0 mg/kg/injection, schedule: Q04DX003 (ip), vehicle: Klucel (hydroxypropylcellulose) (HPC)
# [10] = dose: 50.0 mg/kg/injection, schedule: Q01DX009 (ip), vehicle: saline with Tween-80
# [11] = dose: 100.0 mg/kg/injection, schedule: Q01DX009 (ip), vehicle: saline with Tween-80
# [12] = dose: 200.0 mg/kg/injection, schedule: Q01DX009 (ip), vehicle: saline with Tween-80
# [13] = dose: 60.0 mg/kg/injection, schedule: Q01DX005 (ip), vehicle: Klucel (hydroxypropylcellulose) (HPC)
# [14] = dose: 120.0 mg/kg/injection, schedule: Q01DX005 (ip), vehicle: Klucel (hydroxypropylcellulose) (HPC)
# [15] = dose: 400.0 mg/kg/injection, schedule: Q01DX009 (ip), vehicle: saline with Tween-80
# [16] = dose: 50.0 mg/kg/injection, schedule: Q01DX005 (ip), vehicle: saline with Tween-80
# [17] = dose: 100.0 mg/kg/injection, schedule: Q01DX005 (ip), vehicle: saline with Tween-80
# [18] = dose: 200.0 mg/kg/injection, schedule: Q01DX005 (ip), vehicle: saline with Tween-80
# [19] = dose: 100.0 mg/kg/injection, schedule: Q04DX003 (ip), vehicle: saline with Tween-80
# [20] = dose: 200.0 mg/kg/injection, schedule: Q04DX003 (ip), vehicle: saline with Tween-80
# [21] = dose: 400.0 mg/kg/injection, schedule: Q04DX003 (ip), vehicle: saline with Tween-80
structure (smiles),measurement,setting,value
CC(C)(C)N=C(CCNC1CCCCC1)Nc1cccc(C(F)(F)F)c1,T/C,"dose: 25.0 mg/kg/injection, schedule: Q01DX001 (ip), vehicle: saline",98 % of control
same,T/C,"dose: 50.0 mg/kg/injection, schedule: Q01DX001 (ip), vehicle: saline",101 % of control
same,T/C,"dose: 100.0 mg/kg/injection, schedule: Q01DX001 (ip), vehicle: saline with Tween-80",101 % of control
same,T/C,"dose: 100.0 mg/kg/injection, schedule: Q01DX001 (ip), vehicle: saline",113 % of control
O=[N+]([O-])c1ccc(Sc2nccc(Cl)n2)c([N+](=O)[O-])c1,T/C,"dose: 50.0 mg/kg/injection, schedule: Q01DX009 (ip), vehicle: suspension in saline",100 % of control
same,T/C,"dose: 100.0 mg/kg/injection, schedule: Q01DX009 (ip), vehicle: saline",92 % of control
same,T/C,"dose: 100.0 mg/kg/injection, schedule: Q01DX009 (ip), vehicle: suspension in saline",98 % of control
same,T/C,"dose: 200.0 mg/kg/injection, schedule: Q01DX009 (ip), vehicle: saline",104 % of control
same,T/C,"dose: 200.0 mg/kg/injection, schedule: Q01DX009 (ip), vehicle: suspension in saline",91 % of control
COc1cccc2c1C(=O)c1c(O)c3c(c(O)c1C2=O)CC(O)(C(C)NCCCO)CC3OC1CC(N)C(O)C(C)O1 (centres undefined),T/C,"dose: 1.5 mg/kg/injection, schedule: Q01DX009 (ip), vehicle: water",111 % of control
same,T/C,"dose: 24.0 mg/kg/injection, schedule: Q01DX009 (ip), vehicle: water",168 % of control and 172 % of control
same,T/C,"dose: 48.0 mg/kg/injection, schedule: Q01DX009 (ip), vehicle: water",173 % of control
c1ccc2c(c1)[nH]c1c(N3CCOCC3)nnc(N3CCOCC3)c12,T/C,[1],99 % of control
same,T/C,[2],103 % of control
same,T/C,[3],98 % of control
same,T/C,[4],96 % of control
same,T/C,[5],98 % of control
same,T/C,[6],90 % of control
C[N+](C)(C)CC(C[N+](C)(C)C)C(=O)c1ccccc1,T/C,"dose: 6.25 mg/kg/injection, schedule: Q01DX009 (ip), vehicle: Klucel (hydroxypropylcellulose) (HPC)",107 % of control
same,T/C,"dose: 12.5 mg/kg/injection, schedule: Q01DX009 (ip), vehicle: Klucel (hydroxypropylcellulose) (HPC)",108 % of control
Clc1ccc2c(c1)C(c1ccccc1)=NCc1nncn1-2,T/C,"dose: 25.0 mg/kg/injection, schedule: Q01DX009 (ip), vehicle: Klucel (hydroxypropylcellulose) (HPC)",103 % of control
same,T/C,"dose: 50.0 mg/kg/injection, schedule: Q01DX009 (ip), vehicle: Klucel (hydroxypropylcellulose) (HPC)",95 % of control
CCCCCCCCCCCCCCCCN(O)C(=O)c1cnc[nH]1,T/C,[7],99 % of control
same,T/C,[8],101 % of control
same,T/C,[9],97 % of control
CC1=NN(C(=O)c2ccncc2)C(=O)C1N=Nc1ccc(C)cc1 (centres undefined),T/C,[10],105 % of control
same,T/C,[11],101 % of control
same,T/C,[12],99 % of control
COC(=O)c1c[n+]([O-])ccc1OC,T/C,"dose: 50.0 mg/kg/injection, schedule: Q01DX005 (ip), vehicle: saline",102 % of control
same,T/C,"dose: 100.0 mg/kg/injection, schedule: Q01DX005 (ip), vehicle: saline",106 % of control
same,T/C,"dose: 200.0 mg/kg/injection, schedule: Q01DX005 (ip), vehicle: saline",102 % of control
CCC1(c2ccc(C)cc2)C(=O)NCNC1=O,T/C,[13],102 % of control
same,T/C,[14],102 % of control
same,T/C,"dose: 240.0 mg/kg/injection, schedule: Q01DX005 (ip), vehicle: Klucel (hydroxypropylcellulose) (HPC)",100 % of control
COC(=O)CC(OC)OC,T/C,[11],100 % of control
same,T/C,"dose: 100.0 mg/kg/injection, schedule: Q04DX003 (ip), vehicle: saline",91 % of control
same,T/C,[12],113 % of control
same,T/C,"dose: 200.0 mg/kg/injection, schedule: Q04DX003 (ip), vehicle: saline",91 % of control
same,T/C,[15],113 % of control
same,T/C,"dose: 400.0 mg/kg/injection, schedule: Q04DX003 (ip), vehicle: saline",95 % of control
CC1=C(C(=O)/C=C/c2ccccc2)C(=O)c2ccccc2C1=O,T/C,[16],95 % of control
same,T/C,[17],87 % of control
same,T/C,[18],105 % of control
N#Cc1cnn(C(N)=O)c1N,T/C,[11],110 % of control
same,T/C,[19],100 % of control
same,T/C,[12],110 % of control
same,T/C,[20],100 % of control
same,T/C,[15],100 % of control
same,T/C,[21],100 % of control
O=C(SC(O)c1ccc([N+](=O)[O-])cc1)c1ccccc1 (centres undefined),T/C,[7],101 % of control
same,T/C,[8],106 % of control
same,T/C,[9],101 % of control
C=CC[n+]1ccc(-c2cc[n+](CC=C)cc2)cc1,T/C,"dose: 6.25 mg/kg/injection, schedule: Q01DX009 (ip), vehicle: saline",115 % of control
same,T/C,"dose: 12.5 mg/kg/injection, schedule: Q01DX009 (ip), vehicle: saline",112 % of control and 117 % of control
C=Cc1ccccc1NC(C(=O)O)c1ccccc1 (centres undefined),T/C,[16],107 % of control
same,T/C,[17],106 % of control
same,T/C,[18],104 % of control
O=C(O)C(=O)O.O=C(O)C(=O)O.O=C(O)C(=O)O.[Rh],T/C,"dose: 200.0 mg/kg/injection, schedule: Q04DX003 (ip), vehicle: water",95 % of control
S=c1sc2ccccc2n1CCNc1ccccc1,T/C,[11],90 % of control
same,T/C,[19],90 % of control
same,T/C,[12],90 % of control
same,T/C,[20],95 % of control
same,T/C,[15],86 % of control
same,T/C,[21],104 % of control
Clc1ccc(C2C3CCN2CC3)cc1 (centres undefined),T/C,"dose: 0.78 mg/kg/injection, schedule: Q01DX009 (ip), vehicle: saline",100 % of control
same,T/C,"dose: 1.56 mg/kg/injection, schedule: Q01DX009 (ip), vehicle: saline",96 % of control
same,T/C,"dose: 3.12 mg/kg/injection, schedule: Q01DX009 (ip), vehicle: saline",94 % of control
CC(=O)NCCSSCCSC(=S)N1CCCCC1,T/C,[1],112 % of control
same,T/C,[3],107 % of control
same,T/C,[5],102 % of control
CC1(c2ccc([N+](=O)[O-])cc2)OC(=O)C(=Cc2ccc([N+](=O)[O-])s2)C(=O)O1 (centres undefined),T/C,[10],103 % of control
same,T/C,[11],96 % of control
same,T/C,[12],103 % of control
O=C(CCl)N/N=C(\c1ccccc1)c1ccc(Br)cc1,T/C,"dose: 45.0 mg/kg/injection, schedule: Q01DX009 (ip), vehicle: saline with Tween-80",103 % of control
same,T/C,"dose: 90.0 mg/kg/injection, schedule: Q01DX009 (ip), vehicle: saline with Tween-80",98 % of control
same,T/C,"dose: 180.0 mg/kg/injection, schedule: Q01DX009 (ip), vehicle: saline with Tween-80",97 % of control
CCn1c(=N)sc2nc3ccccc3n2c1=O,T/C,[13],103 % of control
same,T/C,[14],103 % of control
COC(=O)C(CC(C)C)NC(=O)C(Cc1c[nH]c2ccccc12)NC(=O)OC(C)(C)C (centres undefined),T/C,"dose: 10.7 mg/kg/injection, schedule: Q01DX009 (ip), vehicle: other",100 % of control
same,T/C,"dose: 21.3 mg/kg/injection, schedule: Q01DX009 (ip), vehicle: other",93 % of control
same,T/C,"dose: 42.5 mg/kg/injection, schedule: Q01DX009 (ip), vehicle: other",93 % of control
same,T/C,"dose: 85.0 mg/kg/injection, schedule: Q01DX009 (ip), vehicle: other",93 % of control
same,T/C,"dose: 170.0 mg/kg/injection, schedule: Q01DX009 (ip), vehicle: other",98 % of control
CCOC(=O)N(CCN(C(=O)OCC)C1CCCCC1)C1CCCCC1,T/C,[2],99 % of control
same,T/C,"dose: 100.0 mg/kg/injection, schedule: Q04DX002 (ip), vehicle: saline with Tween-80",100 % of control
same,T/C,[4],99 % of control
same,T/C,"dose: 200.0 mg/kg/injection, schedule: Q04DX002 (ip), vehicle: saline with Tween-80",90 % of control
same,T/C,[6],89 % of control
same,T/C,"dose: 400.0 mg/kg/injection, schedule: Q04DX002 (ip), vehicle: saline with Tween-80",89 % of control
